From PubChem BioAssay (NCI)
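Dose response: 5 concentrations. Exposure: 48 h. Format: 96-well plates. Endpoint: linear interpolation; highest concentration if not reached. At the GI50, growth is halved. The concentration for full growth arrest is given as TGI.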

Tests used:
Test in all cases: NCI tumour cell line growth inhibition, 48 h
A498 renal = test system: A498 renal
HS 578T breast = test system: HS 578T breast
TK-10 renal = test system: TK-10 renal
MDA-MB-231 breast = test system: MDA-MB-231 breast
SW-620 colon = test system: SW-620 colon
LOX IMVI melanoma = test system: LOX IMVI melanoma
M14 melanoma = test system: M14 melanoma
MDA-MB-435 = test system: MDA-MB-435
MALME-3M melanoma = test system: MALME-3M melanoma
UO-31 renal = test system: UO-31 renal
CAKI-1 renal = test system: CAKI-1 renal
OVCAR-4 ovarian = test system: OVCAR-4 ovarian
MOLT-4 leukemia = test system: MOLT-4 leukemia
OVCAR-3 ovarian = test system: OVCAR-3 ovarian
ACHN renal = test system: ACHN renal
SF-539 CNS = test system: SF-539 CNS
SF-295 CNS = test system: SF-295 CNS
NCI-H23 lung = test system: NCI-H23 lung
K-562 leukemia = test system: K-562 leukemia
T-47D breast = test system: T-47D breast
HCT-15 colon = test system: HCT-15 colon
HCT-116 colon = test system: HCT-116 colon
A549 NSCLC = test system: A549 NSCLC
CCRF-CEM leukemia = test system: CCRF-CEM leukemia
BT-549 breast = test system: BT-549 breast
SK-MEL-28 melanoma = test system: SK-MEL-28 melanoma
HOP-92 NSCLC = test system: HOP-92 NSCLC
SNB-19 CNS = test system: SNB-19 CNS
RPMI-8226 leukemia = test system: RPMI-8226 leukemia

Compound: Cn1c(COC(=O)NCCn2ccnc2)nc2c(N3CCOCC3)nc(-c3ccccc3)nc21
- GI50 (A498 renal): 1250 nM
- TGI (A498 renal): 2530 nM
- GI50 (HS 578T breast): 1060 nM
- TGI (HS 578T breast): 3590 nM
- GI50 (TK-10 renal): 1070 nM
- TGI (TK-10 renal): 2410 nM
- GI50 (MDA-MB-231 breast): 1060 nM
- TGI (MDA-MB-231 breast): 2340 nM
- GI50 (SW-620 colon): 226 nM
- TGI (SW-620 colon): 580 nM
- GI50 (LOX IMVI melanoma): 152 nM
- TGI (LOX IMVI melanoma): 314 nM
- GI50 (M14 melanoma): 561 nM
- TGI (M14 melanoma): 1920 nM
- GI50 (MDA-MB-435): 694 nM
- TGI (MDA-MB-435): 2080 nM
- GI50 (MALME-3M melanoma): 1380 nM
- TGI (MALME-3M melanoma): 2720 nM
- GI50 (UO-31 renal): 441 nM
- TGI (UO-31 renal): 1740 nM
- GI50 (CAKI-1 renal): 343 nM
- TGI (CAKI-1 renal): 1550 nM
- GI50 (OVCAR-4 ovarian): 692 nM
- TGI (OVCAR-4 ovarian): 1970 nM
- GI50 (MOLT-4 leukemia): 441 nM
- TGI (MOLT-4 leukemia): 2410 nM
- GI50 (OVCAR-3 ovarian): 174 nM
- TGI (OVCAR-3 ovarian): 367 nM
- GI50 (ACHN renal): 353 nM
- TGI (ACHN renal): 1310 nM
- GI50 (SF-539 CNS): 1170 nM
- TGI (SF-539 CNS): 2400 nM
- GI50 (SF-295 CNS): 1540 nM
- TGI (SF-295 CNS): 2890 nM
- GI50 (NCI-H23 lung): 1520 nM
- TGI (NCI-H23 lung): 3080 nM
- GI50 (K-562 leukemia): 347 nM
- TGI (K-562 leukemia): 2000 nM
- GI50 (T-47D breast): 1430 nM
- TGI (T-47D breast): 4170 nM
- GI50 (HCT-15 colon): 193 nM
- TGI (HCT-15 colon): 484 nM
- GI50 (HCT-116 colon): 136 nM
- TGI (HCT-116 colon): 351 nM
- GI50 (A549 NSCLC): 1430 nM
- TGI (A549 NSCLC): 3380 nM
- GI50 (CCRF-CEM leukemia): 254 nM
- TGI (CCRF-CEM leukemia): 1440 nM
- GI50 (BT-549 breast): 737 nM
- TGI (BT-549 breast): 2040 nM
- GI50 (SK-MEL-28 melanoma): 1330 nM
- TGI (SK-MEL-28 melanoma): 2620 nM
- GI50 (HOP-92 NSCLC): 343 nM
- TGI (HOP-92 NSCLC): 1720 nM
- GI50 (SNB-19 CNS): 1380 nM
- TGI (SNB-19 CNS): 2690 nM
- GI50 (RPMI-8226 leukemia): 222 nM
